Source: PubChem BioAssay (NCI)
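Growth conditions: 96-well plates. Treatment: test compound, 48 hours, 5 concentrations. Analysis: linear interpolation between bracketing concentrations; unreached endpoints set to highest concentration. GI50 = concentration required for 50% inhibition of growth. TGI marks complete inhibition of growth.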

How the values were obtained:
Assay in all cases: NCI-60 cell line screen, 48 h
OVCAR-8 ovarian = test system: OVCAR-8 ovarian
UACC-257 melanoma = test system: UACC-257 melanoma
HCC-2998 colon = test system: HCC-2998 colon
NCI-H226 lung = test system: NCI-H226 lung
SF-539 CNS = test system: SF-539 CNS
COLO 205 colon = test system: COLO 205 colon
MOLT-4 leukemia = test system: MOLT-4 leukemia
NCI-H23 lung = test system: NCI-H23 lung
KM12 colon = test system: KM12 colon

SMILES	TGI (OVCAR-8 ovarian) [µM]	TGI (UACC-257 melanoma) [µM]	TGI (HCC-2998 colon) [µM]	TGI (NCI-H226 lung) [µM]	TGI (SF-539 CNS) [µM]	TGI (COLO 205 colon) [µM]	TGI (MOLT-4 leukemia) [µM]	TGI (NCI-H23 lung) [µM]	TGI (KM12 colon) [µM]	GI50 (UACC-257 melanoma) [µM]	GI50 (COLO 205 colon) [µM]	GI50 (MOLT-4 leukemia) [µM]	GI50 (KM12 colon) [µM]	GI50 (NCI-H23 lung) [µM]	GI50 (OVCAR-8 ovarian) [µM]	GI50 (HCC-2998 colon) [µM]	GI50 (SF-539 CNS) [µM]	GI50 (NCI-H226 lung) [µM]
Cc1ccccc1N=Nc1c(-c2ccccc2)nn(C(=O)CC(=O)Nc2cccc(Cl)c2)c1-c1ccccc1	> 31.6	2.58	> 31.6	> 31.6	> 31.6	20.8	22.7	> 31.6										
O=C(/C(=N/Nc1ccccc1)c1ccc([N+](=O)[O-])cc1)c1ccc([N+](=O)[O-])cc1	> 100	> 100	> 100		> 100	> 100	> 100	> 100	> 100									
CCCCCCCCCCOC(=O)c1cc[n+](C)cc1	31.4	34		32.7	29.8	30.3	37.5	35	31.3									
CCN(CC)c1ccc(N=Nc2ccc(-c3nc4cccn(C)c-4n3)cc2)cc1	24	42.3		43.8	25.8	27.9	9.32	34.7	24.9									
COc1cc2c(c(OC)c1OC)-c1ccc(SC)c(=O)cc1C(CC(=O)Oc1cccc(F)c1)C2 (stereo unspecified)		> 100	0.426	0.794	0.387	0.555	> 55.2	0.805	1.14									
COC(=O)CC(=O)NCC1=CCC(=O)CC1	> 100	> 100	> 100		> 100	> 100	> 100	> 100	> 100									
O=c1[nH]c(=O)n(C2CC(O)C(CO)O2)cc1COCC(F)(F)F (stereo unspecified)	> 100	> 100	> 100		> 100	> 100	> 100	> 100	> 100									
Clc1ccc(OCc2nnc3n2N=C(c2ccccc2)CS3)c(Cl)c1	> 100	> 100	> 100	> 100	91.1		> 100	> 100	> 100									
C=Cc1c(C)c2cc3[nH]c(cc4nc(cc5nc(cc1[nH]2)C(C)=C5CCC(=O)N(CC)CC)C(CCC(=O)N(CC)CC)=C4C)c(C)c3C=C	> 100	> 100	> 100		> 100		> 100	> 100	> 100									
C=C(CO)CC(/C=C(\C)CC/C=C(\C)CCl)OC(C)=O (stereo unspecified)	> 100		> 100	> 100	> 100	> 100	> 100	> 100	> 100									
O=C([CH-]C(=O)c1ccccc1)c1ccccc1.O=C([CH-]C(=O)c1ccccc1)c1ccccc1.O=C([CH-]C(=O)c1ccccc1)c1ccccc1.[Cl-].[Zr+4]		73.1				78	> 100	99.7	56.6	17.2	25.7	9.75	12.4	16.9				
COc1cc2nc(-c3cccc4cccnc34)nc(NC3CCN(Cc4ccccc4)CC3)c2cc1OC	2.64	4.1	3.16		2.92		1.81	3.11		2.07		0.325		1.37	0.647	1.72	1.4	
NC(=S)N/N=C1/CN(c2ccc(Cl)c(Cl)c2)CC(=O)C1c1nc2ccccc2s1 (stereo unspecified)	> 100	> 100	> 100	> 100	> 100	> 100		> 100	> 100									
Cc1cc2c(cc1CO)N1Cc3cc(C)c(CO)cc3N(C2)C1	> 100		> 100	> 100	> 100	> 100	> 100	> 100	> 100									
CCCCN1C(=O)/C(=c2\sc3n(c2=O)C2C(NN=3)N(CC)C(=O)N2CC)c2ccccc21 (stereo unspecified)			3.81		1.46		> 100	> 35				2.73		1.77		1.38	0.371	
c1cc[c]([Sn]([O]c2cccc3cccnc23)([O]c2cccc3cccnc23)[c]2ccccc2)cc1	0.859		9.62		1.32	2.28	0.429	0.5			1.07	0.203		0.209	0.294	2.48	0.385	
COC(=O)/C(=C/c1ccc(OC)cc1)C(C(=O)O)=C1CCCCC1	> 100	> 100		> 100	> 100	> 100	> 100	> 100	> 100									
Cc1cn2c(/C=N/N=C(N)N)c(-c3ccncc3)nc2s1	30.9	38.5	27.7	40.5		33.3	32.2	30.2	19.6	19.5	17.5	7.74	5.63	16.6	14.7	14.6		21.8
